Reference: article PMC4598023 (PLoS ONE, 2015)
Bridges are numbered along the chain shown (N, C = ends). Where no end group is shown, it is not given here.

Legend:
[1] = Amylin aggregation kinetics by ThT fluorescence, up to 12 h at varying pH; type: physicochemical; conditions: 50 μM peptide, 10 mM buffer, 20 μM ThT, 2% DMSO, 25°C
Procedure: In this case, at the indicated time 160 μL sample were mixed with 40 μL ThT 100 μM. In both cases the thioflavin T fluorescence was measured by setting excitation at 450 nm and emission at 482 nm. […] The aggregation curves were fitted using a 4 parameter logistic function and the t1/2, elongation rate and lag time were estimated as described elsewhere [65].

MCF–7 cells = experiment: cAMP production in MCF–7 cells following stimulation with amylin and PEGylated amylin; type: cell-based, human; conditions: for cAMP: 37°C
Procedure: The assay was conducted by the CRO Eurofins | Cerep Panlabs, using the cAMP HiRange assay kit (Cisbio, 62AM6PE). According to the company, the assay was performed in 96 well half area plates, in a total reaction volume of 20 μl/well, with a total of 3.000 cells in suspension (after optimization for optimal seeding density and format: adherent or suspension), freshly thawed. Cells were incubated at 37°C in a humidified atmosphere with 5% (v/v) CO2. […] Following the incubation, cells were lysed and the cAMP quantified by using the cAMP HiRange assay kit (Cisbio, 62AM6PE) according to the manufacturer instructions. […] After 60 minutes incubation at room temperature, fluorescence was measured (excitation at 337 nm, emission at 620 vs. 665 nm), and the cAMP concentration was determined by dividing the signal at 665 nm by that at 620 nm and comparing with the cAMP calibration curve. Buffer was used as negative control and the results were corrected accordingly. Results are expressed as mean ± standard error (n = 2) of the resulting cAMP concentrations in nM. EC50 values for the agonist-induced cAMP production was calculated by adjusting data with a logist 4 parameter function (with SigmaPlot, Jandel Sci).
MCF–7 cells endogenously express human amylin receptor CTR1 and CTR2 [72, 73]. Stimulation of the receptor with amylin results in the production of cAMP (Fig 5).

[2] = Pharmacokinetics after subcutaneous administration in mice (serum amylin by ELISA); type: in vivo
Procedure: Swiss male mice (8 weeks old; n = 4 per group) were administrated of free or monoPEGylated human amylin (both at 400 μg peptide / kg body weight) by subcutaneous route. At the indicated time interval, blood was collected with glass capillary tubes from retro-orbital access and the serum was separated. The concentration of amylin in the plasma was evaluated by ELISA (Merck Millipore, cat # EZHA-52K) by following the manufacturer protocol. The sensitivity of the ELISA assay kit for the monoPEGylated human amylin product was similar to the non-conjugated human amylin as inferred from control analytical curves. In case needed, the mice plasma samples were diluted accordingly in order to achieve the desired concentration range of the ELISA kit. Glucagon was evaluated from the same serum samples, by using an ELISA kit (Merck Millipore, Cat # EZGLU-30K) according to instructions of the manufacturer.
Continuous lines are best fitting of single-exponential decay function to data. b) Modulation of glucagon. […] The raw data can be found in S2 File.

[3] = target: T1, Fluorescein-Labelled Murine Amylin (Mus musculus, UniProt P12968); experiment: Isothermal binding assay, fluorescence anisotropy (amylin self-assembly); conditions: PBS pH 7.4, 25°C; for Anisotropy: 50 nM labelled murine amylin, mean of five measurements
T1 sequence (P12968 38-74 limits assumed): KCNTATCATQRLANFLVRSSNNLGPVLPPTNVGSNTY
Procedure: The proteins (CTR, RAMP and murine amylin) were labeled with fluorescein isothiocyanate (FITC; Sigma-Aldrich; 0.2 mM final concentration, from stock in DMSO at 5 mM freshly prepared) in 20 mM Na2HPO4, 300 mM NaCl, pH 7.0, for 60 min at 25°C protected from light. The reaction was quenched by adding an excess of Tris-HCl. The free fluorescein was removed by chromatography with a Sephadex G25 desalting column (GE Healthcare, Brazil). The labeling efficiency, final yield and protein quantification were calculated as described elsewhere. The labeling efficiency was below 1 mol FITC:1 mol protein for all labeling procedures. Labeled proteins were stored until use protected from light at -20°C for no longer than 3 months.
The fluorescence measurements were conducted in a Spectramax M5 (Molecular Devices) microplate reader, with excitation and emission set at 480 nm and 520 nm respectively, with cut-off filter 515 nm. The results represent the mean and the standard error of the mean (SEM) of five measurements. Binding data analysis was performed with SigmaPlot 12.5 (Systat Software, Inc., CA, USA).
Fig 4 Amylin self-assembly and interaction with co-receptors. […] Assays were conducted in PBS, pH 7.4, 25°C, in the presence of 50 nM FITC-labelled proteins (amylin, CTR–1 or RAMP–3). Ex 480 nm, Em 520 nm, filter 515 nm. The raw data can be found in S2 File.

[4] = (unit not given), Swiss male mice, s.c., 400 μg peptide/kg

PEGylated human amylin: human amylin monoconjugated at the N-terminal Lys1 region with 5 kDa methoxyl polyethylene glycol succinimidyl carbonate (mPEGsc5k) (KCNTATCATQRLANFLVHSSNNFGAILSSTNVGSNTY-NH2; disulfide 2-7; also: one mPEG 5 kDa (mPEGsc5k) on a Lys1 amino group)
changes in ThT fluorescence in the 12 h time window [1]: did not observe changes in fluorescence
cAMP (MCF–7 cells; 1.00E-05 Molar, replicate 1, 30 min): 53.95 nM
cAMP (MCF–7 cells; 1.00E-05 Molar, replicate 2, 30 min): 47.73 nM
cAMP (MCF–7 cells; 1.00E-06 Molar, replicate 1, 30 min): 47.85 nM
cAMP (MCF–7 cells; 1.00E-06 Molar, replicate 2, 30 min): 54.26 nM
cAMP (MCF–7 cells; 1.00E-07 Molar, replicate 1, 30 min): 38.3 nM
cAMP (MCF–7 cells; 1.00E-07 Molar, replicate 2, 30 min): 36.06 nM
cAMP (MCF–7 cells; 1.00E-08 Molar, replicate 1, 30 min): 17.13 nM
cAMP (MCF–7 cells; 1.00E-08 Molar, replicate 2, 30 min): 22.08 nM
cAMP (MCF–7 cells; 1.00E-09 Molar, replicate 1, 30 min): 5.54 nM
cAMP (MCF–7 cells; 1.00E-09 Molar, replicate 2, 30 min): 6.29 nM
cAMP (MCF–7 cells; 1.00E-10 Molar, replicate 1, 30 min): 3.86 nM
cAMP (MCF–7 cells; 1.00E-10 Molar, replicate 2, 30 min): 4.59 nM
cAMP (MCF–7 cells; 1.00E-11 Molar, replicate 1, 30 min): 4.14 nM
cAMP (MCF–7 cells; 1.00E-11 Molar, replicate 2, 30 min): 3.71 nM
cAMP (MCF–7 cells; 1.00E-12 Molar, replicate 1, 30 min): 4.83 nM
cAMP (MCF–7 cells; 1.00E-12 Molar, replicate 2, 30 min): 5.61 nM
EC50 (MCF–7 cells; 30 min 37°C, HBSS/HEPES pH 7.4, 500 μM IBMX, cAMP HiRange kit, 4 parameter logistic fit, n = 2, done by CRO): 30.8 ± 6.7 nM
Half Life (One phase decay, best-fit value) [2, 4]: 2.988
Tau (One phase decay, best-fit value) [2, 4]: 4.311
half-life in vivo ([2]; male, Swiss, mouse, in vivo, sc): 179 min
self-assembly with amylin (in words) ([3]; fluorescence anisotropy, 50 nM FITC-labelled protein): PEGylation did not abolish the assembly
Anisotropy ([3]; ligand 0.0492 µM): 0.0707
Anisotropy ([3]; ligand 0.1229 µM): 0.0637
Anisotropy ([3]; ligand 0.3072 µM): 0.0575
Anisotropy ([3]; ligand 0.768 µM): 0.0698
Anisotropy ([3]; ligand 1.92 µM): 0.0836
Anisotropy ([3]; ligand 4.8 µM): 0.232
Anisotropy ([3]; ligand 12 µM): 0.2936
Anisotropy ([3]; ligand 30 µM): 0.27
